We go through one compound from patent publication US9474759B2 (priority 2011, dated 2016).

Read-outs that look alike come from different tables or passages of the source.

One data set has as its system FECV-1683. Nature of the data set: FECV-1683 replication in CRFK cells, TCID50 method. Format: cell-based, feline coronavirus. To be noted: Alphacoronavirus 1, MOI 0.05, mean ± SEM. The procedure:
(§1) Crandell Rees feline kidney (CRFK) cells were maintained in minimal essential medium containing 2-5% fetal bovine serum and antibiotics (chlortetracycline [25 μg/ml], penicillin [250 U/ml], and streptomycin [250 μg/ml]). FIPV WSU 79-1146 and FECV WSU 79-1683 strains are the prototypes of serotype II FIPV or FECV, respectively, and were purchased from ATCC (Manassas, Va.).
(§2) The cells were further incubated in the presence of each compound for 1 hr at 37° C. Then […] or FECV-1683 was inoculated to the cells at a multiplicity of infection (MOI) of 0.05 or 5.
(§3) b. TCID50 Method. A standard TCID50 method with the 10-fold dilution of each sample was used for virus titration.

A further data set has as its system MNV-1. Put plainly: Cell-based screening, MNV-1 in RAW267.4 cells (Example 2). The arrangement: species or system murine norovirus. To be noted: Norwalk virus; RAW267.4 cells; read-out: Inhibition [ED50 (μM)] against various viruses: Calicivirus, MNV-1. The procedure: (§4) 3. Cell-based screening of inhibitor. The effects of each inhibitor on the viral replication were examined. The list of viruses and corresponding cell lines are listed above in Table 2. Briefly, confluent cells were inoculated with virus at a MOI of 5 or 0.05 for 1 hr, and medium was replaced with medium containing mock-medium or each compound (up to 100 μM). The virus infected cells were further incubated for up to 96 hrs, and the replication of virus was measured by TCID50 assay with the 10-fold dilution of each sample used for virus titration (Reed and Muench, 1938). In some viruses, the virus protein and genome expression levels were detected by Western blot analysis and real-time qRT-PCR, respectively, as described below. The IC50s of the compounds were calculated.

The subject of another data set is FIPV-1146. Put plainly: FIPV-1146 replication in CRFK cells, TCID50 method. Format: cell-based, feline coronavirus. The following applies: Alphacoronavirus 1, MOI 0.05, mean ± SEM. The procedure: as §1, §2, §3
A short description of data set [1]: PK and oral bioavailability studies in rats. To be noted: 20 mg/Kg (body weight), IV or PO.
Another data set has as its target HAV 3Cpro (Human hepatitis A virus genotype IB, UniProt P08617). Nature of the data set: Optimized FRET protease assay, HAV 3Cpro (Example 3). The format is biochemical. The procedure:
Fluorogenic substrates with Edans and Dabcyl as a donor and quencher pair were purchased from Bachem (coronavirus substrate) or synthesized by GenScript. The viral proteases and the corresponding fluorogenic substrates are listed in Table 5, along with their sources.
Stock solutions (10 mM) of the substrates and the compounds were prepared in dimethyl sulfoxide (DMSO) and diluted in assay buffer. The assay buffer comprised 20 mM HEPES buffer containing NaCl (0 mM for HAV 3Cpro and 200 mM for all other proteases), 0.4 mM EDTA, Glycerol (60% for NV and MD145 3CLpro and 30% for TGEV and 229E 3CLpro), and 6 mM (NV and MD145 3CLpro and HAV 3Cpro)_or 4 mM (all other proteases) dithiothreitol (DTT) at pH 6 (coronavirus 3CLpro) or 8 (all other proteases). Each protease was mixed with serial dilutions of each compound or with DMSO in 25 μl of assay buffer and incubated at 37° C. for 30 min, followed by the addition of 25 μl of assay buffer containing substrate. Fluorescence readings were obtained using an excitation wavelength of 360 nm and an emission wavelength of 460 nm on a fluorescence microplate reader (FLx800; Biotek, Winooski, Vt.) at 1 h following the addition of substrate. The relative fluorescence units (RFU) were determined by subtracting background values (substrate-containing well without protease) from the raw fluorescence values. […]

A further data set has as its system HAV. Put plainly: Cell culture system, HAV replication in FRhK-4 cells (Example 3). Format: cell-based, hepatitis A virus.
The test system of a further data set is 229E. Nature of the data set: Cell-based screening, 229E in MRC-5 cells (Example 2). The following applies: Human coronavirus 229E, MRC5; MRC-5 cells; read-out: Inhibition [ED50 (μM)] against various viruses: Coronavirus, 229E. The procedure:
as §4

Data set [2] deals with MD145 3CLpro (codon-optimized, full-length, N-terminal 6 His, recombinant) (Lordsdale virus, UniProt P54634). Put plainly: biochemical. Details: species or system norovirus strain MD145 (human norovirus GII).
The target in data set [3] is Norwalk virus 3CL protease (Norovirus, UniProt Q83883). Nature of the data set: Recombinant NV protease fluorogenic substrate inhibition assay (Example 1). The format is biochemical. To be noted: 30 min pre-incubation, 30° C., pH 8.0. The procedure:
(§5) After a 30 minute incubation period, 5 μL of 12 μM Edans-[…]-Dabcyl (SEQ ID NO:1) substrate in DMSO was then added and the increase in fluorescence was monitored for 30 minutes at an excitation and emission wavelength of 360 and 460 nm, respectively. Using a HORIBA FluoroMax 4 spectrofluorometer. Hydrolysis curves were linear. The final enzyme and substrate concentrations were 2.5 μM and 300 nM, respectively. […] Furthermore, the nature of the cap was also important (compare, for example, inhibitors A and D).

For data set [4], the target named is Norwalk virus 3CL protease (NV3CL protease), recombinant (Norovirus, UniProt Q83883). Nature of the data set: Recombinant NV protease FRET inhibition assay (Edans-[…]-Dabcyl substrate), FIG. 4. Format: biochemical. To be noted: 2.5 μM enzyme, 300 nM Edans-EPDFHLQGPEDLAK-Dabcyl, 30 min incubation, 30° C., pH 8.0. The procedure: as §5
The target of data set [5] is TGEV 3CLpro (full-length, 6 His, recombinant) (Porcine transmissible gastroenteritis coronavirus strain Purdue, UniProt P0C6V2). Put plainly: biochemical. Details: species or system transmissible gastroenteritis virus (strain Miller).
Data set [6] has as its target MNV-1 3CLpro (codon-optimized, full-length, recombinant) (Norovirus, UniProt Q80J95). Nature of the data set: biochemical. The arrangement: species or system murine norovirus-1 (GV).
Data set [7] has as its target SARS-CoV 3CLpro (codon-optimized, N-terminal 6 His, recombinant) (Severe acute respiratory syndrome coronavirus, UniProt P0C6X7). Put plainly: biochemical.
Another data set concerns FIPV. Nature of the data set: Cell-based screening, FIPV in CRFK cells (Example 2). The arrangement: species or system feline infectious peritonitis virus. The following applies: Alphacoronavirus 1; CRFK cells; read-out: Inhibition [ED50 (μM)] against various viruses: Coronavirus, FIPV. The procedure: as §4
Data set [8] has as its system 3CLpro of NV, MD145, MNV-1. The format is biochemical, norovirus. To be noted: optimized FRET-based protease assay.

MD145 3CLpro (codon-optimized, full-length, N-terminal 6 His, recombinant), sequence (P54634 1009-1189): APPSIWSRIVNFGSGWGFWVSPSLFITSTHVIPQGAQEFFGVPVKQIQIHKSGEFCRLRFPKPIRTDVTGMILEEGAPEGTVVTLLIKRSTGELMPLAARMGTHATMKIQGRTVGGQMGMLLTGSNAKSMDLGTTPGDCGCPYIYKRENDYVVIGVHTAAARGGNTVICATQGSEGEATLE
MNV-1 3CLpro (codon-optimized, full-length, recombinant), sequence (Q80J95 995-1177): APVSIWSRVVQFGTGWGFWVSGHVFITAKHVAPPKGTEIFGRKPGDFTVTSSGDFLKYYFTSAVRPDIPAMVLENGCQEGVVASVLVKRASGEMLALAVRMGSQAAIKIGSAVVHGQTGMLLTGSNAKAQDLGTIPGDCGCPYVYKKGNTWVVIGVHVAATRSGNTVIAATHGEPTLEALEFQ
TGEV 3CLpro (full-length, 6 His, recombinant), sequence (P0C6V2 2879-3180): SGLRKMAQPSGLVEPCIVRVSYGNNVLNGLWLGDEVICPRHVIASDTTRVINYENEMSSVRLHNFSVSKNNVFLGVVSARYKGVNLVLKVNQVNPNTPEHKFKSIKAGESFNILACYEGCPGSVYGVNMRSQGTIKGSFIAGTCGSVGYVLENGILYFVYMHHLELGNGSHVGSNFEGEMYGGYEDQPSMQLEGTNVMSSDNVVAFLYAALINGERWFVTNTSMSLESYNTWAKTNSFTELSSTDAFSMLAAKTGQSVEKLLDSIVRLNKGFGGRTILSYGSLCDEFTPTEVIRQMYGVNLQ
Norwalk virus 3CL protease (NV3CL protease), recombinant, sequence (Q83883 1101-1281): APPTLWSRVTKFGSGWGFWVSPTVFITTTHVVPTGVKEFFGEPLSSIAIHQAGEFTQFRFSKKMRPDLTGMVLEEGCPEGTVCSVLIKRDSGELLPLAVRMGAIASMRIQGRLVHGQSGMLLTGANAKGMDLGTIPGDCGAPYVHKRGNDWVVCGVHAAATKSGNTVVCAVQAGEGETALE
Norwalk virus 3CL protease, sequence (Q83883 1101-1281): as above
HAV 3Cpro, sequence (P08617 1520-1738): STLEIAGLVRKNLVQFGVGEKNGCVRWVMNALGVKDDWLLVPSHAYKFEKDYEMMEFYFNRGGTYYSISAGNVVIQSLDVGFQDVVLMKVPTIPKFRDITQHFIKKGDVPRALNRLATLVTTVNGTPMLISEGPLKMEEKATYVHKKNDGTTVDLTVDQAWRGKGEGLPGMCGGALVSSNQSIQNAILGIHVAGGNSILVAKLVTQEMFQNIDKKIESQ

What is called IC50 is the concentration that inhibits the measured activity by half. In the case of `CC(C)C[C@H](NC(=O)OCc1ccccc1)C(=O)N[C@H](C=O)C[C@@H]1CCNC1=O` [GC373], the EC50 worked out at 0.04 ± 0.01 µM in the data set on FECV-1683 (24 hr post infection, read-out: Inhibition [ED50 (μM)] against FECV-1683, 24 hrs); 0.09 ± 0.01 µM in the data set with FECV-1683 (48 hr post infection, read-out: Inhibition [ED50 (μM)] against FECV-1683, 48 hrs); 6.5 µM in the data set on MNV-1; 0.07 ± 0.04 µM in the data set with FIPV-1146 (24 hr post infection, read-out: Inhibition [ED50 (μM)] against FIPV-1146, 24 hrs); 0.43 ± 0.35 µM in the data set on FIPV-1146 (48 hr post infection, read-out: Inhibition [ED50 (μM)] against FIPV-1146, 48 hrs); 0.2 µM in the data set with 229E. In addition, the EC50 with FIPV is 0.3 µM. The “oral bioavailability, % F” value in [1] was determined as 3 % F. For the same compound, at HAV 3Cpro, the “inhibitory effect on HAV 3Cpro (in words)” value is given as “all viral proteases except HAV 3Cpro”. In addition, in the data set on HAV, the “effectiveness against the replication of HAV in cells (in words)” value is reported as “no or weak effectiveness”. For the same compound, the IC50 in [2] was found to be 1.18 µM; in data set [4] it was 1.82 µM; in data set [5] it was 0.99 ± 0.12 µM; in data set [6] it was 1.34 µM; in data set [7], 3.48 ± 1.59 µM. Besides, in data set [3], the “inhibitory activity against Norwalk virus 3CL protease (in words)” value is on record as “dose-dependent inhibition”. Moreover, in data set [8], the “effect on the activity of 3CLpro of NV, MD145, MNV-1 (in words)” value is listed as “highly effective”.
